Test results published in patent US20240383886A1, “Protein Tyrosine Phosphatase Degraders and Methods of Use Thereof” (CALICO LIFE SCIENCES LLC, priority 2019, published 2024).

What was measured:
[1] = tested on: PTPN2; experiment: HiBiT-Degradation B16F10.4 PTPN2; type: cell-based; conditions: B16F10.4 cells, 24.0 hours
[2] = biological target: T1, PTPN2 (Homo sapiens, UniProt P17706); experiment: HiBiT-Degradation 293T.109 PTPN2 (Nano-Glo HiBiT Lytic Assay); type: cell-based; conditions: 293T.109 (HiBiT-PTPN2) cells, 24.0 hours
T1 construct: expressed in transfected cells; host or cells: 293T (293T.109 HiBiT-PTPN2 line; parental 293T WT from ATCC)
T1 sequence (P17706 1-415): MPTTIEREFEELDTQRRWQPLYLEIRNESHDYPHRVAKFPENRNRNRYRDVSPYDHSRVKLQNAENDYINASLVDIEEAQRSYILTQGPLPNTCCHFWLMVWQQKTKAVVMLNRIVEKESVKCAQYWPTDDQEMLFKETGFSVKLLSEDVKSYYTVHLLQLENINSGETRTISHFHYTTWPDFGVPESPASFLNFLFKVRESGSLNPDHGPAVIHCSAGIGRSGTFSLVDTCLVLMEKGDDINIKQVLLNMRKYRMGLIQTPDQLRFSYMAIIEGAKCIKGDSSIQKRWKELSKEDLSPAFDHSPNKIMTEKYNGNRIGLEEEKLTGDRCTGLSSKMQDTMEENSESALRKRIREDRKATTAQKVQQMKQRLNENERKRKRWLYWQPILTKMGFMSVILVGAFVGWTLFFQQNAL
In short: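 293T cells ectopically expressing N-terminally HiBiT-tagged PTPN2 were seeded at 5000 cells/well. They were treated with an 11-point half-log titration from 10 μM, in duplicate, for 24 hours at 37° C., 5% CO2. Remaining tagged PTPN2 was quantified by lytic HiBiT luminescence against untreated and no-reagent controls.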

| Compound | DC50 [1] [nM] | DC50 [2] [nM] |
| --- | --- | --- |
| Cn1c(=O)n(C2CCC(=O)NC2=O)c2ccc(C3CCN(CC(=O)N4CC[C@@H](COc5ccc6cc(O)c(N7CC(=O)NS7(=O)=O)c(F)c6c5)C4)CC3)cc21 (stereo partly drawn) [Example 131, 3-[5-[1-[2-[(3R)-3-[[8-fluoro-6-hydroxy-7-(1,1,4-trioxo-1,2,5-thiadiazolidin-2-yl)-2-naphthyl]oxymethyl]pyrrolidin-1-yl]-2-oxo-ethyl]-4-piperidyl]-3-methyl-2-oxo-benzimidazol-1-yl]piperidine-2,6-dione] | 50 to 200 | 10 to 50 |
| Cn1c(=O)n(C2CCC(=O)NC2=O)c2ccc(Nc3ccc(NC(=O)c4ccc5c(F)c(N6CC(=O)NS6(=O)=O)c(O)cc5c4)cc3)cc21 (centres unmarked) [Example 132] | 200 to 1000 | 50 to 200 |
| Cn1c(=O)n(C2CCC(=O)NC2=O)c2ccc(C3CCN(CC(=O)N4CC[C@H](COc5ccc6cc(O)c(N7CC(=O)NS7(=O)=O)c(F)c6c5)C4)CC3)cc21 (stereo partly drawn) [Example 133, 3-[5-[1-[2-[(3S)-3-[[8-fluoro-6-hydroxy-7-(1,1,4-trioxo-1,2,5-thiadiazolidin-2-yl)-2-naphthyl]oxymethyl]pyrrolidin-1-yl]-2-oxo-ethyl]-4-piperidyl]-3-methyl-2-oxo-benzimidazol-1-yl]piperidine-2,6-dione] | 50 to 200 | 10 to 50 |
| Cn1c(=O)n(C2CCC(=O)NC2=O)c2ccc(C3CCN(CCN4CCC[C@@H](COc5ccc6cc(O)c(N7CC(=O)NS7(=O)=O)c(F)c6c5)C4)CC3)cc21 (stereo partly drawn) [Example 137, 3-[5-[1-[2-[(3R)-3-[[8-fluoro-6-hydroxy-7-(1,1,4-trioxo-1,2,5-thiadiazolidin-2-yl)-2-naphthyl]oxymethyl]-1-piperidyl]ethyl]-4-piperidyl]-3-methyl-2-oxo-benzimidazol-1-yl]piperidine-2,6-dione] | 50 to 200 | 50 to 200 |
| Cn1c(=O)n(C2CCC(=O)NC2=O)c2ccc(C3CCN(C(=O)CN4CC[C@H](COc5ccc6cc(O)c(N7CC(=O)NS7(=O)=O)c(F)c6c5)C4)CC3)cc21 (stereo partly drawn) [Example 138, 3-[5-[1-[2-[(3S)-3-[[8-fluoro-6-hydroxy-7-(1,1,4-trioxo-1,2,5-thiadiazolidin-2-yl)-2-naphthyl]oxymethyl]pyrrolidin-1-yl]acetyl]-4-piperidyl]-3-methyl-2-oxo-benzimidazol-1-yl]piperidine-2,6-dione] | 50 to 200 | 50 to 200 |
| Cn1c(=O)n(C2CCC(=O)NC2=O)c2ccc(-c3ccc(NC(=O)NCCOc4ccc5cc(O)c(N6CC(=O)NS6(=O)=O)c(F)c5c4)cc3)cc21 (centres unmarked) [Example 139, 1-[4-[1-(2,6-dioxo-3-piperidyl)-3-methyl-2-oxo-benzimidazol-5-yl]phenyl]-3-[2-[[8-fluoro-6-hydroxy-7-(1,1,4-trioxo-1,2,5-thiadiazolidin-2-yl)-2-naphthyl]oxy]ethyl]urea] | 50 to 200 | 50 to 200 |
| Cn1c(=O)n(C2CCC(=O)NC2=O)c2ccc(C3CCN(CC(=O)NCCOc4ccc5cc(O)c(N6CC(=O)NS6(=O)=O)c(F)c5c4)CC3(F)F)cc21 (centres unmarked) [Example 140, 2-[4-[1-(2,6-dioxo-3-piperidyl)-3-methyl-2-oxo-benzimidazol-5-yl]-3,3-difluoro-1-piperidyl]-N-[2-[[8-fluoro-6-hydroxy-7-(1,1,4-trioxo-1,2,5-thiadiazolidin-2-yl)-2-naphthyl]oxy]ethyl]acetamide] | ≥ 1000 | 50 to 200 |
| Cn1c(=O)n(C2CCC(=O)NC2=O)c2ccc(N3CCC(CC(=O)N4CCC[C@H](COc5ccc6cc(O)c(N7CC(=O)NS7(=O)=O)c(F)c6c5)C4)CC3)cc21 (stereo partly drawn) [Example 143, 3-[5-[4-[2-[(3S)-3-[[8-fluoro-6-hydroxy-7-(1,1,4-trioxo-1,2,5-thiadiazolidin-2-yl)-2-naphthyl]oxymethyl]-1-piperidyl]-2-oxo-ethyl]-1-piperidyl]-3-methyl-2-oxo-benzimidazol-1-yl]piperidine-2,6-dione] | 200 to 1000 | 200 to 1000 |
| Cn1c(=O)n(C2CCC(=O)NC2=O)c2ccc(C3CCN(CCC(=O)N4CC[C@@H](c5ccc6cc(O)c(N7CC(=O)NS7(=O)=O)c(F)c6c5)C4)CC3)cc21 (some centres unmarked) [Example 145] | 50 to 200 | 10 to 50 |
| Cn1c(=O)n(C2CCC(=O)NC2=O)c2ccc(C3CCN(Cc4nnc(-c5ccc6c(F)c(N7CC(=O)NS7(=O)=O)c(O)cc6c5)o4)CC3)cc21 (centres unmarked) [Example 146, 3-[5-[1-[[5-[5-fluoro-7-hydroxy-6-(1,1,4-trioxo-1,2,5-thiadiazolidin-2-yl)-2-naphthyl]-1,3,4-oxadiazol-2-yl]methyl]-4-piperidyl]-3-methyl-2-oxo-benzimidazol-1-yl]piperidine-2,6-dione] | 200 to 1000 | 10 to 50 |
| Cn1c(=O)n(C2CCC(=O)NC2=O)c2ccc(Nc3ccc(CNC(=O)c4ccc5c(F)c(N6CC(=O)NS6(=O)=O)c(O)cc5c4)cc3)cc21 (centres unmarked) [Example 148, N-[[4-[[1-(2,6-dioxo-3-piperidyl)-3-methyl-2-oxo-benzimidazol-5-yl]amino]phenyl]methyl]-5-fluoro-7-hydroxy-6-(1,1,4-trioxo-1,2,5-thiadiazolidin-2-yl)naphthalene-2-carboxamide] | 200 to 1000 | 200 to 1000 |
| Cn1c(=O)n(C2CCC(=O)NC2=O)c2ccc(C3CCN(CCN4CC[C@@H](COc5ccc6cc(O)c(N7CC(=O)NS7(=O)=O)c(F)c6c5)C4)CC3)cc21 (stereo partly drawn) [Example 149, 3-[5-[1-[2-[(3R)-3-[[8-fluoro-6-hydroxy-7-(1,1,4-trioxo-1,2,5-thiadiazolidin-2-yl)-2-naphthyl]oxymethyl]pyrrolidin-1-yl]ethyl]-4-piperidyl]-3-methyl-2-oxo-benzimidazol-1-yl]piperidine-2,6-dione] | 50 to 200 | 10 to 50 |
| Cn1c(=O)n(C2CCC(=O)NC2=O)c2ccc(C3CCN(CCN4CC[C@H](COc5ccc6cc(O)c(N7CC(=O)NS7(=O)=O)c(F)c6c5)C4)CC3)cc21 (stereo partly drawn) [Example 150, 3-[5-[1-[2-[(3S)-3-[[8-fluoro-6-hydroxy-7-(1,1,4-trioxo-1,2,5-thiadiazolidin-2-yl)-2-naphthyl]oxymethyl]pyrrolidin-1-yl]ethyl]-4-piperidyl]-3-methyl-2-oxo-benzimidazol-1-yl]piperidine-2,6-dione] | 50 to 200 | 50 to 200 |

Results, then the molecule that gave them:

| DC50 [1] [nM] | DC50 [2] [nM] | Compound |
| --- | --- | --- |
| 200 to 1000 | 50 to 200 | Cn1c(=O)n(C2CCC(=O)NC2=O)c2ccc(C3CCN(CC(=O)N4CCC[C@H](COc5ccc6cc(O)c(N7CC(=O)NS7(=O)=O)c(F)c6c5)C4)CC3)cc21 (stereo partly drawn) [Example 134, 3-[5-[1-[2-[(3S)-3-[[8-fluoro-6-hydroxy-7-(1,1,4-trioxo-1,2,5-thiadiazolidin-2-yl)-2-naphthyl]oxymethyl]-1-piperidyl]-2-oxo-ethyl]-4-piperidyl]-3-methyl-2-oxo-benzimidazol-1-yl]piperidine-2,6-dione] |
| 50 to 200 | 50 to 200 | Cn1c(=O)n(C2CCC(=O)NC2=O)c2ccc(C3CCN(CCn4cc(-c5ccc6cc(O)c(N7CC(=O)NS7(=O)=O)c(F)c6c5)cn4)CC3)cc21 (centres unmarked) [Example 135, 3-[5-[1-[2-[4-[8-fluoro-6-hydroxy-7-(1,1,4-trioxo-1,2,5-thiadiazolidin-2-yl)-2-naphthyl]pyrazol-1-yl]ethyl]-4-piperidyl]-3-methyl-2-oxo-benzimidazol-1-yl]piperidine-2,6-dione] |
| 50 to 200 | 10 to 50 | Cn1c(=O)n(C2CCC(=O)NC2=O)c2ccc(C3CCN(C(=O)CN4CC[C@@H](COc5ccc6cc(O)c(N7CC(=O)NS7(=O)=O)c(F)c6c5)C4)CC3)cc21 (stereo partly drawn) [Example 141, 3-[5-[1-[2-[(3R)-3-[[8-fluoro-6-hydroxy-7-(1,1,4-trioxo-1,2,5-thiadiazolidin-2-yl)-2-naphthyl]oxymethyl]pyrrolidin-1-yl]acetyl]-4-piperidyl]-3-methyl-2-oxo-benzimidazol-1-yl]piperidine-2,6-dione] |
| 200 to 1000 | 50 to 200 | Cn1c(=O)n(C2CCC(=O)NC2=O)c2ccc(N3CCC(CC(=O)N4CCC[C@@H](COc5ccc6cc(O)c(N7CC(=O)NS7(=O)=O)c(F)c6c5)C4)CC3)cc21 (stereo partly drawn) [Example 142, 3-[5-[4-[2-[(3R)-3-[[8-fluoro-6-hydroxy-7-(1,1,4-trioxo-1,2,5-thiadiazolidin-2-yl)-2-naphthyl]oxymethyl]-1-piperidyl]-2-oxo-ethyl]-1-piperidyl]-3-methyl-2-oxo-benzimidazol-1-yl]piperidine-2,6-dione] |
| 50 to 200 | 10 to 50 | Cn1c(=O)n(C2CCC(=O)NC2=O)c2ccc(C3CCN(CCC(=O)N4CC[C@H](c5ccc6cc(O)c(N7CC(=O)NS7(=O)=O)c(F)c6c5)C4)CC3)cc21 (some centres unmarked) [Example 144] |
| 200 to 1000 | 200 to 1000 | Cn1c(=O)n(C2CCC(=O)NC2=O)c2ccc(C3CCN(CCN4CCC[C@H](COc5ccc6cc(O)c(N7CC(=O)NS7(=O)=O)c(F)c6c5)C4)CC3)cc21 (stereo partly drawn) [Example 147, 3-[5-[1-[2-[(3S)-3-[[8-fluoro-6-hydroxy-7-(1,1,4-trioxo-1,2,5-thiadiazolidin-2-yl)-2-naphthyl]oxymethyl]-1-piperidyl]ethyl]-4-piperidyl]-3-methyl-2-oxo-benzimidazol-1-yl]piperidine-2,6-dione] |
